Experimental findings from ChEMBL document CHEMBL1759932, “Design, synthesis and structure-activity relationships of (indo-3-yl) heterocyclic derivatives as agonists of the CB1 receptor. Discovery of a clinical candidate” (Bioorg Med Chem Lett, 2011) are described below.

Molecules are shown by their SMILES.

Data set [1] in a line: Clearance in ICR mouse. Conditions: in vivo. Type of data set: ADME, organism-based.
The nature of data set [2]: Volume of distribution at steady state in ICR mouse. The class given is ADME, organism-based. Conditions: in vivo, read-out: Vdss.
Data set [3] is described as follows: Half life in ICR mouse. Type of data set: ADME, organism-based. Conditions: in vivo.
A short description of data set [4]: Ratio of Cmax in brain to plasma in ICR mouse. The class given is ADME. As to conditions: brain and plasma.
Data set [5] can be described thus: Intrinsic clearance in human liver microsomes. The class given is ADME, Microsome. On the technique in general: Microsomes from liver hold many membrane-bound enzymes, among them those of drug oxidation.
A short description of data set [6]: Intrinsic clearance in rat liver microsomes. Type of data set: ADME, Microsome.
Data set [7] can be described thus: Intrinsic clearance in mouse hepatic microsomes. Type of data set: ADME, Microsome. Conditions: liver microsomes.
A short description of data set [8]: Half life in Wistar rat. The class given is ADME, organism-based. As to conditions: in vivo.
Data set [9] in a line: Clearance in Beagle dog. Type of data set: ADME, organism-based, Canis lupus familiaris. As to conditions: in vivo.
Data set [10] is described as follows: Half life in Beagle dog. The class given is ADME, organism-based, Canis lupus familiaris. As to conditions: in vivo.
Data set [11] can be described thus: Volume of distribution at steady state in Wistar rat. Type of data set: ADME, organism-based. As to conditions: in vivo, read-out: Vdss.
Data set [12] can be described thus: Volume of distribution at steady state in Beagle dog. The class given is ADME, organism-based, Canis lupus familiaris. Conditions: in vivo, read-out: Vdss.
Data set [13] is described as follows: Clearance in Wistar rat. Type of data set: ADME, organism-based. Conditions: in vivo.
Data set [14] is described as follows: Intrinsic clearance in dog hepatic microsomes. Type of data set: ADME, Canis lupus familiaris, Liver, Microsome.

One may read the clearance as the volume of plasma or blood freed of the substance per unit of time. Usually half-life stands for how long it takes for the measured level to halve. The low end stands for fast loss, the high end for slow loss. What is called Kp is the ratio of the level in a tissue or fluid to that in plasma or blood. In data set [1], `CCc1cccc2c(-c3nsc(CN4CCCC4)n3)cn(CC3CCCCC3)c12.Cl` came in with a clearance of 28 mL/min/kg. Further, in [2], the Vd came to 1.4 L/kg. The compound also yielded a half-life in [3] of 72 min. Further, the Kp in data set [4] came out at 0.05.

By microsomal CLint is commonly meant the capacity of the preparation to metabolise the compound, expressed as a volume cleared per time. A higher microsomal CLint goes with faster metabolism. As to `COCCN(C)Cc1csc(-c2cn(CC3CCCCC3)c3c(Cl)cccc23)n1`, the microsomal CLint in data set [5] came out at 36 µL/min/mg; in [6], 22 µL/min/mg.

Turning to `CN(CCO)Cc1csc(-c2cn(CC3CCOCC3)c3c(Cl)cccc23)n1`, the values for the microsomal CLint in data set [5] and in data set [6] were under 16 µL/min/mg and 167 µL/min/mg, respectively.

With `CC(C)N(CCO)Cc1csc(-c2cn(CC3CCOCC3)c3c(Cl)cccc23)n1`, the microsomal CLint in data set [7] was 176 µL/min/mg; in data set [5] it was 161 µL/min/mg; in data set [6], over 160 µL/min/mg. Moreover, the half-life in data set [8] was 96 min; in [3], 83 min; in data set [10] it was 180 min. Besides, the clearance in data set [1] was 159 mL/min/kg; in data set [9], 28 mL/min/kg; in data set [13], 127 mL/min/kg. Besides, the Vd was determined as 11.3 L/kg in data set [2], 15 L/kg in data set [11] and 5 L/kg in data set [12]. For the same compound, in [4], the Kp amounted to 3.9. In [14], this compound came in with a CL of 131 µL/min/kg.

Regarding `OC1CCN(Cc2csc(-c3cn(CC4CCOCC4)c4c(Cl)cccc34)n2)CC1`, the microsomal CLint is 12 µL/min/mg in data set [5] and 16 µL/min/mg in data set [6].

For the compound `COC1CCN(Cc2csc(-c3cn(CC4CCOCC4)c4c(Cl)cccc34)n2)CC1`, the values for the microsomal CLint in data set [5] and in data set [6] were 80.4 µL/min/mg and over 270 µL/min/mg, respectively.

For `Clc1cccc2c(-c3nc(CN4CCOCC4)cs3)cn(CC3CCOCC3)c12`, the microsomal CLint in [5] was 97.9 µL/min/mg; in [6], over 270 µL/min/mg.

Consider `OCCN(CCO)Cc1csc(-c2cn(CC3CCOCC3)c3c(Cl)cccc23)n1`, for which the microsomal CLint in data set [5] is 111 µL/min/mg; in [6] it was over 270 µL/min/mg.

Regarding `CCc1sc(-c2cn(CC3CCOCC3)c3c(Cl)cccc23)nc1CN(CC)CCO`, the values for the microsomal CLint in data set [5] and in [6] were 114 µL/min/mg and over 270 µL/min/mg, respectively.
